Our source for the IC50 values is patent publication US8188082B2, “5,6,7,8-tetrahydro-imidazo[1,5-α]pyrazine derivatives” (Actelion Pharmaceuticals Ltd., priority 2006, dated 2012).

The target of one assay is T1, human orexin-1 receptor (Homo sapiens, UniProt O43613).
T1 construct: expressed in transfected cells; host or cells: CHO cells (G418 selection)
T1 sequence (O43613 1-425): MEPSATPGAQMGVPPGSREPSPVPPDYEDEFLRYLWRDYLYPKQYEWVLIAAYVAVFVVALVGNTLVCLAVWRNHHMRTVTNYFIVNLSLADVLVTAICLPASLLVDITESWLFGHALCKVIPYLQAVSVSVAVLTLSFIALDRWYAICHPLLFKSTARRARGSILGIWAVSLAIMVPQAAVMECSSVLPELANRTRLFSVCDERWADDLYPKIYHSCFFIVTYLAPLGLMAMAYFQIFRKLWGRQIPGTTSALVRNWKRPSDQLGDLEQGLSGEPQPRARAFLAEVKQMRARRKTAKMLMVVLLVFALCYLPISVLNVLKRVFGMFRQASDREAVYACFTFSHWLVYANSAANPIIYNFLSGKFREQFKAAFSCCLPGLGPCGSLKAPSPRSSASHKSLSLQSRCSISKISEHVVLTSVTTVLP
The assay can be described thus: Intracellular calcium measurements (FLIPR), orexin receptor antagonistic activity, OX1. Type of assay: cell-based. The note with it: CHO cells expressing human orexin-1 receptor; 10 nM orexin-A as agonist. On the procedure:
(§1) Intracellular Calcium Measurements:
(§2) Chinese hamster ovary (CHO) cells expressing the human orexin-1 receptor and the human orexin-2 receptor, respectively, are grown in culture medium (Ham F-12 with L-Glutamine) containing 300 μg/ml G418, 100 U/ml penicillin, 100 μg/ml streptomycin and 10% inactivated fetal calf serum (FCS). The cells are seeded at 80,000 cells/well into 96-well black clear bottom sterile plates (Costar) which have been precoated with 1% gelatine in Hanks' Balanced Salt Solution (HBSS). All reagents are from Gibco BRL. The seeded plates are incubated overnight at 37° C. in 5% CO2.
(§3) Human orexin-A as an agonist is prepared as 1 mM stock solution in MeOH:water (1:1), diluted in HBSS containing 0.1% bovine serum albumin (BSA) and 2 mM HEPES for use in the assay at a final concentration of 10 nM.
(§4) Antagonists are prepared as 10 mM stock solution in DMSO, then diluted in 96-well plates, first in DMSO, then in HBSS containing 0.1% bovine serum albumin (BSA) and 2 mM HEPES.
(§5) On the day of the assay, 100 μl of loading medium (HBSS containing 1% FCS, 2 mM HEPES, 5 mM probenecid (Sigma) and 3 μM of the fluorescent calcium indicator fluo-3 AM (1 mM stock solution in DMSO with 10% pluronic acid) (Molecular Probes) is added to each well.
(§6) The 96-well plates are incubated for 60 min at 37° C. in 5% CO2. The loading solution is then aspirated and cells are washed 3 times with 200 μl HBSS containing 2.5 mM probenecid, 0.1% BSA, 2 mM HEPES. 100 μl of that same buffer is left in each well.
(§7) Within the Fluorescent Imaging Plate Reader (FLIPR, Molecular Devices), antagonists are added to the plate in a volume of 50 μl, incubated for 20 min and finally 100 μl of agonist is added. Fluorescence is measured for each well at 1 second intervals, and the height of each fluorescence peak is compared to the height of the fluorescence peak induced by 10 nM orexin-A with buffer in place of antagonist. For each antagonist, IC50 value (the concentration of compound needed to inhibit 50% of the agonistic response) is determined.
Background: Calcium flux is commonly read through the fluorescence of an indicator in the cells.

The next assay deals with T2, human orexin-2 receptor (Homo sapiens, UniProt O43614).
T2 construct: expressed in transfected cells; host or cells: CHO cells (G418 selection)
T2 sequence (O43614 1-444): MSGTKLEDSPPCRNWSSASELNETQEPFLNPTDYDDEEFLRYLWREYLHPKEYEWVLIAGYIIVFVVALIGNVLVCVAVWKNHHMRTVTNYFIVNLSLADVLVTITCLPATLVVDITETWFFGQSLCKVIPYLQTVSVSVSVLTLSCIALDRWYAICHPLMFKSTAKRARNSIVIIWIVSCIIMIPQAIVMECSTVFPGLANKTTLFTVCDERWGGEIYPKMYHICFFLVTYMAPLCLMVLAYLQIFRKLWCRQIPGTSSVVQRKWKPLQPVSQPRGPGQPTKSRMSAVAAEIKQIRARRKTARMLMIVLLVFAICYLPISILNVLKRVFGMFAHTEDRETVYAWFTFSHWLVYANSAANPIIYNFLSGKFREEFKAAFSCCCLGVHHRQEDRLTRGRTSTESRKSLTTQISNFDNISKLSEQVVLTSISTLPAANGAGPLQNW
The assay can be described thus: Intracellular calcium measurements (FLIPR), orexin receptor antagonistic activity, OX2. It is filed as cell-based. The note with it: CHO cells expressing human orexin-2 receptor; 10 nM orexin-A as agonist. On the procedure:
as §1, §2, §3, §4, §5, §6, §7

A value given as a limit tells only on which side of the number the result lay.

What is called IC50 is the concentration that inhibits the measured activity by half. With `CNC(=O)[C@@H](c1ccccc1)N1CCn2c(C)nc(Cl)c2C1CCc1ccc(C)c(C)c1` (mixture of isomers) [11 (8S; 2′R)/(8R; 2′R)], the IC50 on human orexin-1 receptor turned out to be 36 nM; at human orexin-2 receptor it was 11 nM.
`CNC(=O)[C@@H](c1ccccc1)N1CCn2c(COC)nc(Cl)c2C1CCc1ccc(C(F)(F)F)cc1` (mixture of isomers) [16 (8S; 2′R)/(8R; 2′R)]: the 50% inhibitory concentration (IC50) came out at 2060 nM on human orexin-1 receptor and 33 nM at human orexin-2 receptor.
For `CNC(=O)[C@@H](c1ccccc1)N1CCn2c(C)nc(C)c2C1CCc1ccc(OC)cc1OC` (mixture of isomers) [25 (8S; 2′R)/(8R; 2′R)] the same measures were ≥ 10000 nM and 115 nM.
Take `CNC(=O)[C@@H](c1ccccc1)N1CCn2c(Cl)nc(Cl)c2C1CCc1ccc(C(F)(F)F)cc1` (mixture of isomers) [33 (8S; 2′R)/(8R; 2′R)]: the 50% inhibitory concentration (IC50) on human orexin-1 receptor was 279 nM; on human orexin-2 receptor it was 11 nM.
On to `CNC(=O)[C@@H](c1ccccc1)N1CCn2c(C)nc(Cl)c2[C@H]1CCc1cc(F)c(C)c(F)c1` [10 (8R; 2′R), (R)-2′-{1-chloro-(R)-8-[2-(3,5-difluoro-4-methyl-phenyl)-ethyl]-3-methyl-5,6-dihydro-8H-imidazo[1,5-a]pyrazin-7-yl}-N-methyl-2′-phenyl-acetamide], for which the IC50 at human orexin-1 receptor was found to be 72 nM; at human orexin-2 receptor it was 14 nM.
For `CCc1nc(C(F)(F)F)c2n1CCN([C@@H](C(=O)NC)c1ccccc1)[C@H]2CCc1ccc(C(F)(F)F)cc1` [15 (8S; 2′R), (R)-2′-{3-ethyl-1-trifluoromethyl-(S)-8-[2-(4-trifluoromethyl-phenyl)-ethyl]-5,6-dihydro-8H-imidazo[1,5-a]pyrazin-7-yl}-N-methyl-2′-phenyl-acetamide], the 50% inhibitory concentration (IC50) stood at 807 nM on human orexin-1 receptor and 15 nM on human orexin-2 receptor.
Take `CCc1nc(OC)c2n1CCN([C@@H](C(=O)NC)c1ccccc1)[C@H]2CCc1ccc(C)c(C)c1` [27 (8S; 2′R), (R)-2′-{(S)-8-[2-(3,4-dimethyl-phenyl)-ethyl]-3-ethyl-1-methoxy-5,6-dihydro-8H-imidazo[1,5-a]pyrazin-7-yl}-N-methyl-2′-phenyl-acetamide]: the half-maximal inhibitory concentration (IC50) was determined as 5 nM at human orexin-1 receptor and 4 nM on human orexin-2 receptor.
For `C=Cc1nc(CC)n2c1[C@H](CCc1ccc(C(F)(F)F)cc1)N([C@@H](C(=O)NC)c1ccccc1)CC2` [28 (8S; 2′R), (R)-2′-{3-ethyl-(S)-8-[2-(4-trifluoromethyl-phenyl)-ethyl]-1-vinyl-5,6-dihydro-8H-imidazo[1,5-a]pyrazin-7-yl}-N-methyl-2′-phenyl-acetamide] the same measures were 176 nM and 29 nM.
The matching figures for `CCc1nc(Cl)c2n1CCN([C@@H](C(=O)NC)c1ccccc1)[C@H]2CCc1cc(F)c(OC)c(F)c1` [36 (8S; 2′R), (R)-2′-{1-chloro-(S)-8-[2-(3,5-difluoro-4-methoxy-phenyl)-ethyl]-3-ethyl-5,6-dihydro-8H-imidazo[1,5-a]pyrazin-7-yl}-N-methyl-2′-phenyl-acetamide]: 17 nM and 14 nM.
Regarding `CNC(=O)[C@@H](c1ccccc1)N1CCn2c(C)nc(C#N)c2[C@@H]1CCc1ccc(C(F)(F)F)c(F)c1` [43 (8S; 2′R), (R)-2′-{1-cyano-(S)-8-[2-(3-fluoro-4-trifluoromethyl-phenyl)-ethyl]-3-methyl-5,6-dihydro-8H-imidazo[1,5-a]pyrazin-7-yl}-N-methyl-2′-phenyl-acetamide], the IC50 amounted to 538 nM at human orexin-1 receptor and 14 nM on human orexin-2 receptor.
On to `CNC(=O)[C@@H](c1ccccc1)N1CCn2c(C)nc(C3CC3)c2[C@@H]1CCc1ccc(C(F)(F)F)cc1` [46 (8S; 2′R), (R)-2′-{1-cyclopropyl-3-methyl-(S)-8-[2-(4-trifluoromethyl-phenyl)-ethyl]-5,6-dihydro-8H-imidazo[1,5-a]pyrazin-7-yl}-N-methyl-2′-phenyl-acetamide], for which the IC50 at human orexin-1 receptor stood at 762 nM; at human orexin-2 receptor, 21 nM.
The matching figures for `CCc1nc(Cl)c2n1CCN([C@@H](C(=O)NC)c1ccccc1)[C@H]2COc1cccc(C(F)(F)F)c1` [53 (8R; 2′R), (R)-2′-[1-chloro-3-ethyl-(R)-8-(3-trifluoromethyl-phenoxymethyl)-5,6-dihydro-8H-imidazo[1,5-a]pyrazin-7-yl]-N-methyl-2′-phenyl-acetamide]: 412 nM and 2 nM.
